Measured values published in patent US6713494B1, “Amorphous benzothiophenes, methods of preparation and methods of use” (Eli Lilly and Company, priority 1996, dated 2004).
Structures can show the parent of a compound that is named as a salt. Where two headings read alike, the source gives them in different places.

Tests used:
physchem = conditions: water, 37 °C, thermodynamic from solid, in water, in sonicator
[1] = long term studies; birefringence under polarized light microscope
Procedure: The presence of the amorphous form of a compound of formula I was determined by observing the material under a polarized light microscope, and determining if the material was birefringent. If no birefringence was observed, the material was considered to be amorphous.
The amorphous material was also made as a complex with povidone, with ratios of raloxifene HCl to PVP as follows: 9:1, 3:1, and 1:1 (w/w). Complexes with hydroxypropyl-β-cyclodextrin (HPBCD) were also prepared, with a ratio of raloxifene HCl to HPBCD of from 1:1 to 1:4 (w/w).

[2] = Bioavailability study: plasma levels in dogs; type: in vivo; conditions: 4 mg/kg, PEG vehicle, plasma levels over a 10 hour period, amorphous vs crystalline form
Procedure: The extent and rate of absorption of the crystalline and amorphous forms of raloxifene HCl was determined. The two forms of the compound were formulated in a PEG vehicle as follows: […]
Six dogs were dosed as follows: three dogs received the amorphous form, while three dogs received the crystalline form, both at a dose of 4 mg/kg. Plasma levels of the two compound forms were then determined over a 10 hour period.

[3] = for Solubility: in water, room temperature, hydrochloride

Row | Solubility (physchem) | Stability of the amorphous form [1] | Bioavailability (plasma levels) [2] | Solubility of the amorphous form relative to the crystalline form ([3]; amorphous vs crystalline form) | Solubility [3] | Compound
1 | 120 mg/mL | very stable | greater bioavailability | approximately 250 times | 42.2 mg/mL | O=C(c1ccc(OCCN2CCCCC2)cc1)c1c(-c2ccc(O)cc2)sc2cc(O)ccc12 [amorphous, raloxifene hydrochloride]
2 | – | – | – | – | 0.08 mg/mL | O=C(c1ccc(OCCN2CCCCC2)cc1)c1c(-c2ccc(O)cc2)sc2cc(O)ccc12 [crystalline, raloxifene hydrochloride, reference compound]
